“And” between values parts separate entries of the source, which are not always exact repeats. Equal values may be shown once. Toxic doses and inconclusive results are not listed. Cut-off read from the data, not from the text of the source: active = T/C of 150% or more; inactive = T/C below 125%.
System: L1210 leukemia ip in BDF1 mice, survival T/C
Test: NCI In Vivo Anticancer Drug Screen. Data for tumor model L1210 Leukemia (intraperitoneal) in B6D2F1 (BDF1) mice
Conditions: endpoint: mean survival time, higher = longer survival
Summary of the method: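 Transplantable tumor model; survival measured in treated vs vehicle control mice. Value = treated/control.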

[1] = dose: 100.0 mg/kg/injection, schedule: Q01DX001 (ip), vehicle: saline
[2] = dose: 200.0 mg/kg/injection, schedule: Q01DX001 (ip), vehicle: saline
[3] = dose: 400.0 mg/kg/injection, schedule: Q01DX001 (ip), vehicle: saline
[4] = dose: 100.0 mg/kg/injection, schedule: Q01DX009 (ip), vehicle: Klucel (hydroxypropylcellulose) (HPC)
[5] = dose: 200.0 mg/kg/injection, schedule: Q01DX009 (ip), vehicle: Klucel (hydroxypropylcellulose) (HPC)
[6] = dose: 400.0 mg/kg/injection, schedule: Q01DX009 (ip), vehicle: Klucel (hydroxypropylcellulose) (HPC)
[7] = dose: 12.5 mg/kg/injection, schedule: Q01DX009 (ip), vehicle: saline
[8] = dose: 25.0 mg/kg/injection, schedule: Q01DX009 (ip), vehicle: saline
[9] = dose: 50.0 mg/kg/injection, schedule: Q01DX009 (ip), vehicle: saline
[10] = dose: 100.0 mg/kg/injection, schedule: Q01DX009 (ip), vehicle: saline

Measured: T/C

C/C=C/C1=C(Cl)C(=O)[C@@H](Cl)[C@@]1(O)C(=O)OC
inactive: dose: 1.25 mg/kg/injection, schedule: Q01DX009 (ip), vehicle: saline 101 % of control | dose: 2.5 mg/kg/injection, schedule: Q01DX009 (ip), vehicle: saline 97 % of control | dose: 2.5 mg/kg/injection, schedule: Q04DX003 (ip), vehicle: saline 101 % of control | dose: 5.0 mg/kg/injection, schedule: Q01DX009 (ip), vehicle: saline 103 % of control | dose: 5.0 mg/kg/injection, schedule: Q04DX003 (ip), vehicle: saline 95 % of control | dose: 10.0 mg/kg/injection, schedule: Q01DX001 (ip), vehicle: saline 94 % of control | dose: 10.0 mg/kg/injection, schedule: Q04DX003 (ip), vehicle: saline 100 % of control

O=S(=O)(F)/C=C/c1ccccc1
inactive: dose: 15.0 mg/kg/injection, schedule: Q01DX015 (ip), vehicle: saline 96 % of control | dose: 30.0 mg/kg/injection, schedule: Q01DX015 (ip), vehicle: saline 96 % of control | dose: 60.0 mg/kg/injection, schedule: Q01DX015 (ip), vehicle: saline 100 % of control | dose: 120.0 mg/kg/injection, schedule: Q01DX015 (ip), vehicle: saline 96 % of control

CCN(c1ccccc1)C1CCCCC1=O (centres undefined)
inactive: [1] 101 % of control | [2] 106 % of control | [3] 104 % of control

CC(=O)Nc1ccc(NC(=O)Nc2cc(Cl)ccc2C)cc1
inactive: [4] 91 % of control | [5] 93 % of control | [6] 96 % of control

Cc1cccc(NC(=O)NCCCl)c1
inactive: dose: 100.0 mg/kg/injection, schedule: Q01DX001 (ip), vehicle: other 97 % of control | [4] 95 % of control | dose: 100.0 mg/kg/injection, schedule: Q04DX002 (ip), vehicle: Klucel (hydroxypropylcellulose) (HPC) 102 % of control | dose: 200.0 mg/kg/injection, schedule: Q01DX001 (ip), vehicle: other 105 % of control | [5] 92 % of control | dose: 200.0 mg/kg/injection, schedule: Q04DX002 (ip), vehicle: Klucel (hydroxypropylcellulose) (HPC) 113 % of control | dose: 400.0 mg/kg/injection, schedule: Q01DX001 (ip), vehicle: other 97 % of control | [6] 92 % of control | dose: 400.0 mg/kg/injection, schedule: Q04DX002 (ip), vehicle: Klucel (hydroxypropylcellulose) (HPC) 102 % of control

CCOC(=O)CCC(=O)NNc1ccccc1
inactive: dose: 50.0 mg/kg/injection, schedule: Q01DX001 (ip), vehicle: carboxymethylcellulose (CMC) 106 % of control | dose: 100.0 mg/kg/injection, schedule: Q01DX001 (ip), vehicle: carboxymethylcellulose (CMC) 100 % of control | dose: 200.0 mg/kg/injection, schedule: Q01DX001 (ip), vehicle: carboxymethylcellulose (CMC) 102 % of control | dose: 400.0 mg/kg/injection, schedule: Q01DX001 (ip), vehicle: carboxymethylcellulose (CMC) 106 % of control

CN(C)CCCN1c2ccccc2Sc2c(Cl)cc(Cl)cc21
inactive: dose: 6.25 mg/kg/injection, schedule: Q01DX009 (ip), vehicle: saline 97 % of control | [7] 103 % of control | [8] 101 % of control | dose: 25.0 mg/kg/injection, schedule: Q04DX003 (ip), vehicle: saline 94 % of control | [9] 104 % of control | dose: 50.0 mg/kg/injection, schedule: Q04DX003 (ip), vehicle: saline 113 % of control | dose: 100.0 mg/kg/injection, schedule: Q04DX003 (ip), vehicle: saline 118 % of control

CC1(C)OC2C(C(=O)N(CCO)CCO)OC(n3cnc4c(N)ncnc43)C2O1 (centres undefined)
inactive: dose: 75.0 mg/kg/injection, schedule: Q01DX001 (ip), vehicle: saline 102 % of control | dose: 75.0 mg/kg/injection, schedule: Q04DX003 (ip), vehicle: saline 106 % of control | dose: 150.0 mg/kg/injection, schedule: Q01DX001 (ip), vehicle: saline 104 % of control | dose: 150.0 mg/kg/injection, schedule: Q04DX003 (ip), vehicle: saline 106 % of control | dose: 300.0 mg/kg/injection, schedule: Q01DX001 (ip), vehicle: saline 101 % of control | dose: 300.0 mg/kg/injection, schedule: Q04DX003 (ip), vehicle: saline 107 % of control

NCc1cc2c3c(c1)CCCN3CCC2
inactive: dose: 12.5 mg/kg/injection, schedule: Q01DX001 (ip), vehicle: saline 111 % of control | [7] 97 % of control | dose: 25.0 mg/kg/injection, schedule: Q01DX001 (ip), vehicle: saline 107 % of control | [8] 97 % of control | dose: 50.0 mg/kg/injection, schedule: Q01DX001 (ip), vehicle: saline 105 % of control | [9] 104 % of control

Cc1ccc(S)cc1
inactive: [10] 87 % of control

COC(=O)C1OC1c1ccccc1OC (centres undefined)
inactive: [1] 105 % of control | [2] 102 % of control | [3] 109 % of control

CNc1ccccn1
inactive: dose: 75.0 mg/kg/injection, schedule: Q01DX001 (ip), vehicle: carboxymethylcellulose (CMC) 95 % of control | dose: 150.0 mg/kg/injection, schedule: Q01DX001 (ip), vehicle: carboxymethylcellulose (CMC) 97 % of control | dose: 300.0 mg/kg/injection, schedule: Q01DX001 (ip), vehicle: carboxymethylcellulose (CMC) 101 % of control

C(/C=C/C=C/Nc1ccccc1)=Nc1ccccc1
inactive: dose: 100.0 mg/kg/injection, schedule: Q04DX003 (ip), vehicle: saline with Tween-80 100 % of control | dose: 200.0 mg/kg/injection, schedule: Q04DX003 (ip), vehicle: saline with Tween-80 104 % of control | dose: 400.0 mg/kg/injection, schedule: Q04DX003 (ip), vehicle: saline with Tween-80 92 % of control

CN=C(N)Nc1ccccc1
inactive: dose: 50.0 mg/kg/injection, schedule: Q01DX009 (ip), vehicle: saline with Tween-80 97 % of control | [9] 101 % of control | dose: 100.0 mg/kg/injection, schedule: Q01DX009 (ip), vehicle: saline with Tween-80 90 % of control | [10] 101 % of control | dose: 200.0 mg/kg/injection, schedule: Q01DX009 (ip), vehicle: saline with Tween-80 97 % of control | dose: 200.0 mg/kg/injection, schedule: Q01DX009 (ip), vehicle: saline 101 % of control

COc1cc2c(cc1Cl)nc1c(=O)[nH]c(=O)nc-1n2CCN1CCCC1
inactive: dose: 8.7 mg/kg/injection, schedule: Q01DX Z (ip), vehicle: methylcellulose (MC) 97 % of control | dose: 17.5 mg/kg/injection, schedule: Q01DX Z (ip), vehicle: methylcellulose (MC) 94 % of control | dose: 70.0 mg/kg/injection, schedule: Q01DX Z (ip), vehicle: methylcellulose (MC) 114 % of control

COc1ccc2c(c1)CCC1=C2CCC(C)(C(C)=O)C1C(=O)O (centres undefined)
inactive: dose: 25.0 mg/kg/injection, schedule: Q01DX009 (ip), vehicle: Klucel (hydroxypropylcellulose) (HPC) 101 % of control | dose: 25.0 mg/kg/injection, schedule: Q04DX003 (ip), vehicle: Klucel (hydroxypropylcellulose) (HPC) 97 % of control | dose: 50.0 mg/kg/injection, schedule: Q01DX009 (ip), vehicle: Klucel (hydroxypropylcellulose) (HPC) 98 % of control | dose: 50.0 mg/kg/injection, schedule: Q04DX003 (ip), vehicle: Klucel (hydroxypropylcellulose) (HPC) 100 % of control | [4] 95 % of control | dose: 100.0 mg/kg/injection, schedule: Q04DX003 (ip), vehicle: Klucel (hydroxypropylcellulose) (HPC) 102 % of control and 87 % of control
